In patent US9963434B2, “N-arylmethyl sulfonamide negative modulators of NR2A” (LUC THERAPEUTICS, priority 2013, dated 2018) one finds IC50 data, which are given here for 15 compounds.

The target in this assay is NR1/NR2A (Homo sapiens (Human), UniProt Q05586+Q12879). Put plainly: FDSS Ca2+ influx inhibition assay in HEK293 cells expressing NR1/NR2A. The format is cell-based. Conditions: 3 μM glutamate, 3 μM glycine, 1 mM Ca2+. An outline of the steps: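 Fluo-8-loaded HEK293 NR1/NR2A cells preincubated 10 min with compound at 10 μM final (0.1% DMSO) in Ca2+/Mg2+-free HBSS with 20 mM HEPES. Stimulated with 3 μM glutamate, 3 μM glycine, 1 mM Ca2+; FDSS recording for 3 min, end/baseline fluorescence ratio compared with MK801.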
Chain of NR1/NR2A (Q12879 23-1464, other chains not shown): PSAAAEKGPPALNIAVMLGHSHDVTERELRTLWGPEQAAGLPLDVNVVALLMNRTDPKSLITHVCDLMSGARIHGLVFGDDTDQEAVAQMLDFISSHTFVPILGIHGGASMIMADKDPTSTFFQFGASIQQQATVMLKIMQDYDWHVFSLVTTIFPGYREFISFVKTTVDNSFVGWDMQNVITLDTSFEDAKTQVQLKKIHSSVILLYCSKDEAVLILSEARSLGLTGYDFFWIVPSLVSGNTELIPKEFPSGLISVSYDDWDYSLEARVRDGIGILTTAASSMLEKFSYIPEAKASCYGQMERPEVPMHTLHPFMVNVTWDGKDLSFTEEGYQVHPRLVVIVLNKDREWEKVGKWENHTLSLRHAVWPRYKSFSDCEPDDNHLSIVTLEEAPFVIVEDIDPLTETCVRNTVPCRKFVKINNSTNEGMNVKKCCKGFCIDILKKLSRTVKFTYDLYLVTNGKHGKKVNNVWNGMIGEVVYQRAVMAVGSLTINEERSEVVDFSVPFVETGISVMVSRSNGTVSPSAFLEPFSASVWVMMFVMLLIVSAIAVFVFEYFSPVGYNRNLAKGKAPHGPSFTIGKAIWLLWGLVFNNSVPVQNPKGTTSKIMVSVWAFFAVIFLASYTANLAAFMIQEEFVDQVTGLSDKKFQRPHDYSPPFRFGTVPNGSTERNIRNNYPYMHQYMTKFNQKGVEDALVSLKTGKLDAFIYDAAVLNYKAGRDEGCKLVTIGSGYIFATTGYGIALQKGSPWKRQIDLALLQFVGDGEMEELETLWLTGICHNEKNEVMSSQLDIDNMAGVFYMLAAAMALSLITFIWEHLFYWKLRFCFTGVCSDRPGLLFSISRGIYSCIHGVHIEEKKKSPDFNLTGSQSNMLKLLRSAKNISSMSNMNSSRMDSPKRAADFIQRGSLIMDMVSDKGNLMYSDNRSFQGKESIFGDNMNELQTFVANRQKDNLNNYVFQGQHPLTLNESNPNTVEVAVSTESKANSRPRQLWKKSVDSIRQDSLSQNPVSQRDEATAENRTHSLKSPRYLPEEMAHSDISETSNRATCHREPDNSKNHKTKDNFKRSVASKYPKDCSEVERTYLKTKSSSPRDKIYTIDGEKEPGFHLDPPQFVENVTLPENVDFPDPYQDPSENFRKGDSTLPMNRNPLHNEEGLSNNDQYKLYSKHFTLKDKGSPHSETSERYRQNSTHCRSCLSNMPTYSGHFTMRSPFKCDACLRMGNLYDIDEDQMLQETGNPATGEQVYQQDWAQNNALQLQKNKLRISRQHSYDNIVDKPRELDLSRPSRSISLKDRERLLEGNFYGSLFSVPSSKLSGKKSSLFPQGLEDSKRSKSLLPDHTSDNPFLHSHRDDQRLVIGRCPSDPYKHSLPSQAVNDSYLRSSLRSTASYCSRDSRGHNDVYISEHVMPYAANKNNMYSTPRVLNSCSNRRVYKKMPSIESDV

Setting [1] is: inhibition relative to MK801, read-out: NR2A IC50.

The structures appear in SMILES notation. Where two headings read alike, the source gives them in different places. Some results are limits rather than exact numbers.

As for `Cn1ccnc1CNC(=O)c1cnc(CNS(=O)(=O)c2ccc(F)c(Cl)c2)cn1` [5-(3-chloro-4-fluorobenzenesulfon-amidomethyl)-N-[(1-methyl-1H-imidazol-2-yl)methyl]pyrazine-2-carboxamide], the IC50 under setting [1] was found to be 10 µM and the IC50 (read-out: Binned Activity) is greater than 10 µM. For `O=C(NCc1cccs1)c1ccc(CNS(=O)(=O)c2ccc(F)c(Cl)c2)cn1` [5-(3-chloro-4-fluorobenzenesulfon-amidomethyl)-N-(thiophen-2-ylmethyl)pyridine-2-carboxamide] the same measures were 10 µM and greater than 10 µM.

As for `Cn1ccnc1CNC(=O)c1ccc(CNS(=O)(=O)c2ccc(F)c(Cl)c2)nc1` [6-(3-chloro-4-fluorobenzenesulfon-amidomethyl)-N-[(1-methyl-1H-imidazol-2-yl)methyl]pyridine-3-carboxamide], where the note is “read-out: Binned Activity”, the IC50 fell in the range of 0.1 to 1 µM. Same read-out and setting: with `Cc1ncc(CNC(=O)c2ccc(CNS(=O)(=O)c3ccc(F)c(F)c3)cn2)s1` [5-(3,4-difluorobenzenesulfon-amidomethyl)-N-[(2-methyl-1,3-thiazol-5-yl)methyl]pyridine-2-carboxamide] the figure was 0.1 to 1 µM. As to `Cc1cccc(CNC(=O)c2cnc(CNS(=O)(=O)c3ccc(F)c(Cl)c3)cn2)n1` [5-(3-chloro-4-fluorobenzenesulfon-amidomethyl)-N-[(6-methylpyridin-2-yl)methyl]pyrazine-2-carboxamide], the IC50 reads like this: under setting [1], 10 µM; (read-out: Binned Activity) greater than 10 µM. On to `Cc1ncc(CNC(=O)c2ccc(CNS(=O)(=O)c3ccn(C)n3)cn2)s1` [N-[(2-methyl-1,3-thiazol-5-yl)methyl]-5-(1-methyl-1H-pyrazole-3-sulfonamidomethyl) pyridine-2-carboxamide], for which the IC50 under setting [1] was found to be 10 µM and the IC50 (read-out: Binned Activity) is greater than 10 µM. Turning to `O=C(NCc1ccncn1)c1ccc(CNS(=O)(=O)c2ccc(F)c(Cl)c2)nc1` [6-(3-chloro-4-fluorobenzenesulfon-amidomethyl)-N-(pyrimidin-4-ylmethyl)pyridine-3-carboxamide], the IC50 under setting [1] amounted to 10 µM and the IC50 (read-out: Binned Activity) is greater than 10 µM. The like results for `Cc1ncc(CNC(=O)c2ccc(CNS(=O)(=O)c3cc(F)cc(F)c3)cn2)s1` [5-(3,5-difluorobenzenesulfon-amidomethyl)-N-[(2-methyl-1,3-thiazol-5-yl)methyl]pyridine-2-carboxamide] were, in that order, 10 µM and greater than 10 µM. The like results for `Cc1ncc(CNC(=O)c2cnc(CNC(=O)c3cc(Cl)ccc3F)cn2)s1` [5-{[(5-chloro-2-fluorophenyl)formamido]methyl}-N-[(2-methyl-1,3-thiazol-5-yl)methyl]pyrazine-2-carboxamide] were, in that order, 10 µM and greater than 10 µM. As for `Cc1ncc(CNC(=O)c2cnc(CNC(=O)c3cccc(F)c3)cn2)s1` [5-{[(3-fluorophenyl)formamido]methyl}-N-[(2-methyl-1,3-thiazol-5-yl)methyl]pyrazine-2-carboxamide], the IC50 is 10 µM under setting [1] and greater than 10 µM (read-out: Binned Activity).

Turning to `O=C(NCc1ncccn1)c1ccc(CNS(=O)(=O)c2ccc(F)c(Cl)c2)nc1` [6-(3-chloro-4-fluorobenzenesulfon-amidomethyl)-N-(pyrimidin-2-ylmethyl)pyridine-3-carboxamide], the IC50 is, setting by setting: under setting [1], 10 µM; (read-out: Binned Activity) greater than 10 µM. As to `O=C(NCc1nccs1)c1ccc(CNS(=O)(=O)c2ccc(F)c(Cl)c2)nc1` [6-(3-chloro-4-fluorobenzenesulfon-amidomethyl)-N-(1,3-thiazol-2-ylmethyl)pyridine-3-carboxamide], the IC50 under setting [1] was determined as 10 µM and the IC50 (read-out: Binned Activity) was greater than 10 µM. For `Cc1ncc(CNC(=O)c2ccc(CNS(=O)(=O)c3cccc4nsnc34)cn2)s1` [5-(2,1,3-benzothiadiazole-4-sulfonamidomethyl)-N-[(2-methyl-1,3-thiazol-5-yl)methyl]pyridine-2-carboxamide] the same measures were 10 µM and greater than 10 µM. Turning to `Cc1ncc(CNC(=O)c2ccc(CNS(=O)(=O)c3ccc(Cl)c(Cl)c3)cn2)s1` [5-(3,4-dichlorobenzenesulfon-amidomethyl)-N-[(2-methyl-1,3-thiazol-5-yl)methyl]pyridine-2-carboxamide], for the setting “read-out: Binned Activity”, the IC50 lay within 1 to 10 µM. With `Cc1ncc(CNC(=O)c2cnc(CNS(=O)(=O)c3cccs3)cn2)s1` [N-[(2-methyl-1,3-thiazol-5-yl)methyl]-5-(thiophene-2-sulfonamidomethyl) pyrazine-2-carboxamide], the IC50 (read-out: Binned Activity) fell in the range of 1 to 10 µM.
